Measured values: PMC11174103 (Molecules, 2024)
Several values for one entry are separate records, joined by “and”; a condition that tells them apart may be missing. Identical values can stand only once. Like-named read-outs stand apart in the source and are kept apart here.

Assays:
hMAO-B = target: T1, hMAO-B (Homo sapiens, UniProt P27338); assay: In vitro MAO-B enzyme inhibitory activity (recombinant human enzyme, benzylamine substrate); assay type: biochemical; settings: for IC50: recombinant human MAO-B, mean ± SD of 3 independent experiments in triplicate; for SI: SI = IC50 (hMAO-A)/IC50 (hMAO-B) ratio
T1 construct: purchased Sigma-Aldrich
T1 sequence (P27338 1-520): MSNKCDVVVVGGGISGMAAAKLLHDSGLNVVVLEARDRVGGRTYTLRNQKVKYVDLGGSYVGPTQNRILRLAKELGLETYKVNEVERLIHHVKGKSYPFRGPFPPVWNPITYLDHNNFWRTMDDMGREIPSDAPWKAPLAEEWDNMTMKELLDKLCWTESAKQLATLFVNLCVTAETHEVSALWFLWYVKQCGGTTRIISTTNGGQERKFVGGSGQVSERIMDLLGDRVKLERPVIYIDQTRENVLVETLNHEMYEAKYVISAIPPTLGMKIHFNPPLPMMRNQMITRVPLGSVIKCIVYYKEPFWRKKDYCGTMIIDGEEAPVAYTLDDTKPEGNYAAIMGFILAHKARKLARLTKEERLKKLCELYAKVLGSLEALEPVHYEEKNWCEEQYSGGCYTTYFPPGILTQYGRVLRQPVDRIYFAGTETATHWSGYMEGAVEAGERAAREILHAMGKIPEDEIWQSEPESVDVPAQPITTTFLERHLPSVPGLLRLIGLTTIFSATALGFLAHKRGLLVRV
Method: (§1) The Novaroli et al. method was used with minor modifications to study the biological activities of MAO-A and MAO-B in vitro. A preincubation step was carried out at 37 °C for 10 min, in which 140 μL of 0.1 M potassium phosphate-buffered solution at pH 7.4, 8 μL of 0.75 mM kynuramine, and 2 μL of a dimethyl sulfoxide (DMSO) solution (i.e., final DMSO and inhibitor concentrations of 1% (v/v) and 0–1 μM, respectively). Diluted human recombinant enzyme (50 μL) was added to achieve the final protein concentration, and the mixture was incubated at 37 °C. After 20 min, the reaction was stopped with the addition of 75 μL of 2 M NaOH. […] Each measurement was repeated three times. DMSO was used as control. IC50 values were then calculated. […] The determination of IC50 values for inhibition of MAO enzymes involved the use of recombinant human MAO-A and MAO-B enzymes (purchased from Sigma-Aldrich). The initial rates of oxidation were measured in a 1 mL cuvette containing 50 mM of sodium phosphate (pH 7.4) at 25 °C, as described previously, except for the substrate concentrations and assay times. […] Meanwhile, the assessment of MAO-B activity employed 0.6 mM of benzylamine as the substrate, with absorbance changes measured at 250 nm for 10 min. Substrate addition initiated the reaction, and the reaction rates were quantified as alterations in absorbance per minute.

hMAO-A = target: T2, hMAO-A (Homo sapiens, UniProt P21397); assay: In vitro MAO-A enzyme inhibitory activity (recombinant human enzyme, kynuramine substrate); assay type: biochemical
T2 construct: purchased Sigma-Aldrich
T2 sequence (P21397 1-527): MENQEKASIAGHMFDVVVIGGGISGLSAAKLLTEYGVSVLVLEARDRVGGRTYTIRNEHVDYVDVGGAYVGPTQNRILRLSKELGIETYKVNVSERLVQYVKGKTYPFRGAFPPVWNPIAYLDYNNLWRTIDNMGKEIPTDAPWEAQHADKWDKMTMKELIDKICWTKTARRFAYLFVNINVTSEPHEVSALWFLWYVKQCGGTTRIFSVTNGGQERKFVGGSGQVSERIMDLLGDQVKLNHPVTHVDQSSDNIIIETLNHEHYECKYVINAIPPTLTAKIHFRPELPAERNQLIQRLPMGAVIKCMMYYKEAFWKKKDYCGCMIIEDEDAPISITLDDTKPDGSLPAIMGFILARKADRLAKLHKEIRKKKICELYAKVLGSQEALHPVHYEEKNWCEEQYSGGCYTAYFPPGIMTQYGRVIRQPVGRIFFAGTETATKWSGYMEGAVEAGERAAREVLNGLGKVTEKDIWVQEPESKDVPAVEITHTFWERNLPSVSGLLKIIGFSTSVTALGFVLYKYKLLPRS
Method: as §1

[1] = recombinant human MAO-A, mean ± SD of 3 independent experiments in triplicate, read-out: IC50 hMAO-A

| SMILES | IC50 (hMAO-B) | SI (hMAO-B) | IC50 (hMAO-A) [nM] | IC50 (hMAO-A; [1]) [nM] |
| --- | --- | --- | --- | --- |
| CCOC(=O)C1CCN(C2(C#Cc3ccccc3)CCCCC2)CC1 [4z, Ethyl 1-(1-(phenylethynyl)cyclohexyl)piperidine-4-carboxylate] | 213 ± 2.24 nM |  |  |  |
| Brc1ccccc1C#CC1(N2CCCCC2)CCCCC1 [4y, 1-(1-((2-Bromophenyl)ethynyl)cyclohexyl)piperidine] | 277.4 ± 2.71 nM |  |  |  |
| CCC(C#Cc1ccccc1)(CC)N1CCCC1 [4q, 1-(3-Ethyl-1-phenylpent-1-yn-3-yl)pyrrolidine] | 317 ± 3.24 nM |  |  |  |
| CCCC(C)(C#Cc1ccccc1)N1CCCC1 (stereo not drawn) [4p, 1-(3-Methyl-1-phenylhex-1-yn-3-yl)pyrrolidine] | 203 ± 2.24 nM |  |  |  |
| C(#CC1(N2CCCC2c2cccnc2)CCCCC1)c1ccccc1 (stereo not drawn) [4aa, 3-(1-(1-(Phenylethynyl)cyclohexyl)pyrrolidin-2-yl)pyridine] | 168 ± 2.12 nM | 4.70 | 791.3 ± 6.72 |  |
| CC1CCCCC1(C#Cc1ccccc1)N1CCCC1 (stereo not drawn) [4s, 1-(2-Methyl-1-(phenylethynyl)cyclohexyl)pyrrolidine] | 281.3 ± 2.75 nM |  |  |  |
| C(#CC1(N2CCCCC2)CCCC1)c1ccccc1 [4n, 1-(1-(phenylethynyl)cyclopentyl)piperidine] | 272.3 ± 2.54 nM |  |  |  |
| CC(C)(O)C#CC1(N2CCN(c3ccccc3)CC2)CCCCC1 [4ab, 2-Methyl-4-(1-(4-phenylpiperazin-1-yl)cyclohexyl)but-3-yn-2-ol] | 167 ± 2.01 nM | 5.06 |  | 845.8 ± 6.83 |
| Clc1ccc(C#CC2(N3CCCC3)CCCCC2)cc1 [4h, 1-(1-((4-chlorophenyl)ethynyl)cyclohexyl)pyrrolidine] | 172 ± 2.1 nM |  |  |  |
| C(#CC1(NCc2ccccc2)CC2CCC1C2)c1ccccc1 (stereo not drawn) [4ae, N-Benzyl-2-(phenylethynyl)bicyclo[2.2.1]heptan-2-amine] | 321.6 ± 2.94 nM |  |  |  |
| C(#CC1(N2CCOCC2)CCCCC1)c1ccccc1 [4d, 4-(1-(Phenylethynyl)cyclohexyl)morpholine] | 174 ± 2.08 nM |  |  |  |
| COc1ccc(C#CC2(N3CCCCC3)CCCCC2)cc1 [4i, 1-(1-((4-methoxyphenyl)ethynyl)cyclohexyl)piperidine] | 172 ± 2.1 nM |  |  |  |
| C(#CC1(N2CCCC2)CCCCCC1)c1ccccc1 [4c, 1-(1-(phenylethynyl)cycloheptyl)pyrrolidine] | 183 ± 2.12 nM |  |  |  |
| C(#CC1(N2CCCCC2)CC2CCC1C2)c1ccccc1 (stereo not drawn) [4u, 1-(2-(Phenylethynyl)bicyclo[2.2.1]heptan-2-yl)piperidine] | 346 nM and 277 nM |  |  |  |
| COc1ccc(CNC2(C#Cc3ccccc3)CCCCC2)cc1 [4m, N-(4-methoxybenzyl)-1-(phenylethynyl)cyclohexanamine] | 165 ± 2.01 nM | 4.86 |  | 802.9 ± 7.03 |
| Clc1ccc(C#CC2(N3CCCCC3)CCCCC2)cc1 [4f, 1-(1-((4-chlorophenyl)ethynyl)cyclohexyl)piperidine] | 175 ± 2.11 nM |  |  |  |
| COc1ccc(C#CC2(N3CCCCC3)CCCCC2)c(C)c1 [4x, 1-(1-((4-Methoxy-2-methylphenyl)ethynyl)cyclohexyl)piperidine] | 267.4 ± 2.52 nM |  |  |  |
| CC1CCCC(C#Cc2ccccc2)(N2CCCC2)C1 (stereo not drawn) [4t, 1-(3-Methyl-1-(phenylethynyl)cyclohexyl)pyrrolidine] | 192 ± 2.41 nM |  |  |  |
| CC(C)(O)C#CC1(N2CCCC2c2cccnc2)CCCCC1 (stereo not drawn) [4k, 2-methyl-4-(1-(2-(pyridin-3-yl)pyrrolidin-1-yl)cyclohexyl)but-3-yn-2-ol] | 152 ± 1.95 nM | 5.24 |  | 797.1 ± 6.73 |
| C(#CC1(NCc2ccccc2)CCCCC1)c1ccccc1 [4ac, N-Benzyl-1-(phenylethynyl)cyclohexanamine] | 278.4 ± 2.71 nM |  |  |  |
| C(#CC1(NC2CCCCC2)CCCCC1)c1ccccc1 [4l, N-cyclohexyl-1-(phenylethynyl)cyclohexan-1-amine] | 294 ± 3.06 nM |  |  |  |
| C(#CC1(N2CCCC2)CCCC1)c1ccccc1 [4b, 1-(1-(phenylethynyl)cyclopentyl)pyrrolidine] | 182 ± 2.21 nM |  |  |  |
| Cc1cccc(C#CC2(N3CCCCC3)CCCCC2)c1 [4w, 1-(1-(m-Tolylethynyl)cyclohexyl)piperidine] | 281.9 ± 2.72 nM |  |  |  |
| C(#CC1(N2CCCC2c2cccnc2)CCCC1)c1ccccc1 (stereo not drawn) [4j, 3-(1-(1-(Phenylethynyl)cyclopentyl)pyrrolidin-2-yl)pyridine] | 165 ± 2.03 nM | 5.23 |  | 861.5 ± 6.97 |
| CCCN(CCC)C1(C#Cc2ccccc2)CCCCC1 [4e, 1-(phenylethynyl)-N, N-dipropylcyclohexan-1-amine] | 286.1 ± 2.74 nM |  |  |  |
| C(#CC1(N2CCCCC2)CCCCC1)c1ccccc1 [4a, 1-(1-(phenylethynyl)cyclohexyl)piperidine] | 274.2 ± 2.68 nM |  |  |  |
| CCCCCCC(C#Cc1ccccc1)(CCC)N1CCCC1 (stereo not drawn) [4r, 1-(4-(Phenylethynyl)decan-4-yl)pyrrolidine] | 323.4 ± 3.21 nM |  |  |  |
| CC(C)(O)C#CC1(NCc2ccc(F)cc2)CCCCC1 [4ad, 4-(1-((4-Fluorobenzyl)amino)cyclohexyl)-2-methylbut-3-yn-2-ol] | 161 ± 1.97 nM | 4.74 |  | 765.6 ± 6.42 |
| CCC(C)(C#Cc1ccccc1)N1CCCC1 (stereo not drawn) [4o, 1-(3-Methyl-1-phenylpent-1-yn-3-yl)pyrrolidine] | 312 ± 3.17 nM |  |  |  |
| Cc1ccc(C#CC2(N3CCCC3)CCCCC2)cc1 [4g, 1-(1-(p–tolylethynyl)cyclohexyl)pyrrolidine] | 189 ± 2.24 nM |  |  |  |
